From patent publication US20130005747A1, “METHOD FOR SELECTING A CANCER THERAPY” (Cyclacel Limited, priority 2010, published 2013)

Experiments:
Assay in all cases: Fractional growth, 72 h seliciclib
Assay type in all cases: cell-based, human
5637 = 5637 (Bladder), 15 μM seliciclib
Excerpt: (§1) A total of 270 human cancer cell lines from diverse cancer histopathologic types were investigated.

B-CPAP = B-CPAP (Thyroid), 15 μM seliciclib
Excerpt: as §1

BHY = BHY (Head & Neck), 15 μM seliciclib
Excerpt: as §1

C-4 II = C-4 II (Cervix), 15 μM seliciclib
Excerpt: as §1

C-4 I = C-4 I (Cervix), 15 μM seliciclib
Excerpt: as §1

CAL-12T = CAL-12T (Lung: NSCLC), 15 μM seliciclib
Excerpt: as §1

COLO 205 = COLO 205 (Intestine), 15 μM seliciclib
Excerpt: as §1

Calu-3 = Calu-3 (Lung: NSCLC), 15 μM seliciclib
Excerpt: as §1

DBTRG-05MG = DBTRG-05MG (Brain), 15 μM seliciclib
Excerpt: as §1

Daoy = Daoy (Brain), 15 μM seliciclib
Excerpt: as §1

EJ138 = EJ138 (Bladder), 15 μM seliciclib
Excerpt: as §1

ESS-1 = ESS-1 (Uterus), 15 μM seliciclib
Excerpt: as §1

G-402 = G-402 (Kidney), 15 μM seliciclib
Excerpt: as §1

GCT = GCT (Miscellaneous), 15 μM seliciclib
Excerpt: as §1

H2596 = H2596 (Lung), 15 μM seliciclib
Excerpt: as §1

HMCB = HMCB (Skin), 15 μM seliciclib
Excerpt: as §1

HMVII = HMVII (Skin), 15 μM seliciclib
Excerpt: as §1

HSC-2 = HSC-2 (Head & Neck), 15 μM seliciclib
Excerpt: as §1

HTC-C3 = HTC-C3 (Thyroid), 15 μM seliciclib
Excerpt: as §1

Hs 633T = Hs 633T (Miscellaneous), 15 μM seliciclib
Excerpt: as §1

KP-3 = KP-3 (Pancreas), 15 μM seliciclib
Excerpt: as §1

LU65C = LU65C (Lung: NSCLC), 15 μM seliciclib
Excerpt: as §1

MES-SA = MES-SA (Uterus), 15 μM seliciclib
Excerpt: as §1

MIA PaCa-2 = MIA PaCa-2 (Pancreas), 15 μM seliciclib
Excerpt: as §1

NCI-H1573 = NCI-H1573 (Lung: NSCLC), 15 μM seliciclib
Excerpt: as §1

NCI-H1734 = NCI-H1734 (Lung: NSCLC), 15 μM seliciclib
Excerpt: as §1

NCI-H841 = NCI-H841 (Lung), 15 μM seliciclib
Excerpt: as §1

PCI-30 = PCI-30 (Head & Neck), 15 μM seliciclib
Excerpt: as §1

PCI-4A = PCI-4A (Head & Neck), 15 μM seliciclib
Excerpt: as §1

RERF-LC-Sq1 = RERF-LC-Sq1 (Lung: NSCLC), 15 μM seliciclib
Excerpt: as §1

SBC-5 = SBC-5 (Lung), 15 μM seliciclib
Excerpt: as §1

SK-MEL-37 = SK-MEL-37 (Skin), 15 μM seliciclib
Excerpt: as §1

SK-OV-3 = SK-OV-3 (Ovary), 15 μM seliciclib
Excerpt: as §1

SW 156 = SW 156 (Kidney), 15 μM seliciclib
Excerpt: as §1

Sarc9371 = Sarc9371 (Bone), 15 μM seliciclib
Excerpt: as §1

T47D = T47D (Breast), 15 μM seliciclib
Excerpt: as §1

UO-31 = UO-31 (Kidney), 15 μM seliciclib
Excerpt: as §1

CC[C@H](CO)Nc1nc(NCc2ccccc2)c2ncn(C(C)C)c2n1 [seliciclib, roscovitine]
Fractional Growth 5637: 0.6151 | Fractional Growth (B-CPAP): 0.5754 | Fractional Growth (BHY): 0.5602 | Fractional Growth (C-4 II): 0.7489 | Fractional Growth (C-4 I): 0.5067 | Fractional Growth (CAL-12T): 0.3472 | Fractional Growth (COLO 205): 0.4437 | Fractional Growth (Calu-3): 0.6463 | Fractional Growth (DBTRG-05MG): 0.7139 | Fractional Growth (Daoy): 0.6209 | Fractional Growth (EJ138): 0.3103 | Fractional Growth (ESS-1): 0.4399 | Fractional Growth (G-402): 0.2708 | Fractional Growth (GCT): 0.4799 | Fractional Growth (H2596): 0.7486 | Fractional Growth (HMCB): 0.161 | Fractional Growth (HMVII): 0.4646 | Fractional Growth (HSC-2): 0.5464 | Fractional Growth (HTC-C3): 0.3914 | Fractional Growth (Hs 633T): 0.41 | Fractional Growth (KP-3): 0.3396 | Fractional Growth (LU65C): 0.3767 | Fractional Growth (MES-SA): 0.3922 | Fractional Growth (MIA PaCa-2): 0.4826 | Fractional Growth (NCI-H1573): 0.5485 | Fractional Growth (NCI-H1734): 0.2849 | Fractional Growth (NCI-H841): 0.7639 | Fractional Growth (PCI-30): 0.5541 | Fractional Growth (PCI-4A): 0.3628 | Fractional Growth (RERF-LC-Sq1): 0.6428 | Fractional Growth (SBC-5): 0.7399 | Fractional Growth (SK-MEL-37): 0.5209 | Fractional Growth (SK-OV-3): 0.7375 | Fractional Growth (SW 156): 0.467 | Fractional Growth (Sarc9371): 0.6425 | Fractional Growth (T47D): 0.6314 | Fractional Growth (UO-31): 0.3152
